Assay results reported in patent publication US12029751B2, “Therapeutic agent for nervous system disease” (OSAKA UNIVERSITY, priority 2017, dated 2024).

Assays:
[1] = tested on: rat spinal cord injury model; assay: BBB score in rat spinal cord injury model (lateral hemisection model); format: in vivo; settings: 1 mg/kg/day osmotic minipump; for BBB score: left lower extremity
Description: Six-week-old female Wistar rats were used. The rats were purchased from Charles River Laboratories Japan, Inc. (Yokohama, Japan). Anesthesia was performed as follows. A 1:10 dilution of a mixture of three anesthetic agents in physiological saline was administered by intraperitoneal injection. One dose consisted of 0.2 mg/kg of midazolam, 0.015 mg/kg of medetomidine, and 0.25 mg/kg of butorphanol. The rat was placed in a prone position on an operating table, and a dorsal midline incision was made. The T10 vertebral arch was removed to expose the posterior face of the spinal cord, and the left spinal cord was hemisected using a sharp-pointed surgical scalpel (spitz mess). The skin was sutured using a 4-0 nylon thread and the surgery was completed. A comparison was made among three groups: a methylcobalamin treatment group, an untreated group, and a sham group. Immediately after the surgical operation, an osmotic minipump filled with methylcobalamin (1 mg/kg/day) or physiological saline was placed for the methylcobalamin treatment group and the untreated group, respectively, and left in the left dorsal subcutaneous space. The sham group underwent only resection of the Th10 vertebral arch.
Each rat was separately accommodated in a cage, allowed to walk freely, and observed for 5 minutes. According to a conventional method, left-lower-extremity function was evaluated using scores of 0 (no locomotion) to 21 (normal locomotion). The evaluations were performed before surgery, and at 1, 7, 14, 21, and 28 days after the surgery.

[2] = tested on: tMCAO model C57BL/6J mice; assay: Brain ischemic lesion volume by TTC staining in transient middle cerebral artery occlusion (tMCAO) model; format: in vivo, mouse; settings: 2 days after tMCAO surgery
Excerpt: Eight- to 9-week-old male C57BL/6J mice (about 24 g) were used. A probe for a laser Doppler blood flow meter was placed on the right skull such that blood flow in the middle cerebral artery could be monitored. The right cervical region was cut and opened, and the external carotid artery was ligated. Then, the common carotid artery was cut, and a nylon thread was inserted into the common carotid artery, and the tip was advanced while the blood flow was checked using a blood flow monitor. When the tip reached the bifurcation of the middle cerebral artery and a decrease in blood flow was observed, this state was held for 1 hour at a rectal temperature of 37° C. Then, the nylon thread was removed, and the common carotid artery was ligated. In order to administer methylcobalamin continuously, an osmotic minipump was placed and left in the dorsal subcutaneous space. […]
At 2 days after the surgery, the mouse (Example 4-1) was sacrificed, and the cerebrum was excised. […] Images were obtained by a stereoscopic microscope, the ischemic lesion area in each slice was calculated, and all ischemic lesion areas of the cerebrum slices were summed up to calculate an ischemic lesion volume. The ischemic lesion area in each slice was calculated by the following formula: Area of unaffected hemisphere—area of affected side intact portion.

[3] = tested on: microglia cell line (6-3 cells); assay: Western blot of M1 markers (iNOS, IL-1β) and M2 markers (Arg1, CD206) in microglia; format: cell-based
Description: To a microglia cell line (6-3 cells), LPS (100 ng/ml) and an anti-inflammatory cytokine IL-4 (20 ng/ml) were added. Methylcobalamin solutions each having a different concentration ranging from 1 nM to 1 mM were added to the mixture, and proteins were recovered from each mixture at 1 and 3 days after the addition. Electrophoresis and transfer to a membrane were performed, the membrane was blocked, and the cells were allowed to react with each of primary antibodies against M1 markers (iNOS and IL-1β) and M2 markers (Arg1 and CD206) at 4° C. overnight. Cells were allowed to react with a secondary antibody at room temperature for 1 hour, and bands were detected using a detector.
The primary antibodies used were an anti-iNOS antibody, an anti-IL-1β antibody, an anti-Arg1 antibody, and an anti-CD206 (a mannose receptor) antibody. The secondary antibody used was an Anti-Rabbit IgG, HRP-Linked Whole Ab Sheep.

## C/C1=C2/[N-][C@H]([C@H](CC(N)=O)[C@@]2(C)CCC(=O)NC[C@@H](C)OP(=O)([O-])O[C@H]2[C@@H](O)[C@@H](n3cnc4cc(C)c(C)cc43)O[C@@H]2CO)[C@]2(C)N=C(/C(C)=C3N=C(/C=C4N=C1[C@@H](CCC(N)=O)C\4(C)C)[C@@H](CCC(N)=O)[C@]\3(C)CC(N)=O)[C@@H](CCC(N)=O)[C@]2(C)CC(N)=O.[CH3-].[Co+3] [MeCbl, methylcobalamin]
[1]; 0 days after surgery (before surgery)
  BBB score: 21
[1]; 14, 21, and 28 days after the surgery
  left-lower-extremity motor function (BBB score) as compared to the untreated group: significantly improved
[1]; 1 day after surgery
  BBB score: 0.17
[1]; 7 days after surgery
  BBB score: 8.33
[1]; 14 days after surgery
  BBB score: 15.50
[1]; 21 days after surgery
  BBB score: 16.33
[1]; 28 days after surgery
  BBB score: 17
[2]; 1 mg/kg/day continuous, osmotic minipump
  ischemic lesion volume: 28.8
[2]; 1 mg/kg/day
  reduction of ischemic lesion volume as compared with the control group: about ½
[3]; IL-4 + 1 nM to 10 μM methylcobalamin
  amount of Arg1 protein as compared with IL-4 alone: significantly increased
[3]; IL-4 + 10 nM to 100 nM methylcobalamin
  amount of CD206 as compared with IL-4 alone: significantly increased
[3]; MeCbl 1 nM
  Arg1 (amount of protein, IL-4 alone = 1.00): 1.78
  CD206 (amount of protein, IL-4 alone = 1.00): 1.11
  IL-1β (amount of protein, LPS alone = 1.00): 1.02
  iNOS (amount of protein, LPS alone = 1.00): 0.87
[3]; MeCbl 10 nM
  Arg1 (amount of protein, IL-4 alone = 1.00): 2.03
  CD206 (amount of protein, IL-4 alone = 1.00): 1.42
  IL-1β (amount of protein, LPS alone = 1.00): 0.95
  iNOS (amount of protein, LPS alone = 1.00): 0.74
[3]; MeCbl 100 nM
  Arg1 (amount of protein, IL-4 alone = 1.00): 2.72
  CD206 (amount of protein, IL-4 alone = 1.00): 1.39
  IL-1β (amount of protein, LPS alone = 1.00): 0.83
  iNOS (amount of protein, LPS alone = 1.00): 0.76
[3]; MeCbl 1 μM
  Arg1 (amount of protein, IL-4 alone = 1.00): 2.20
  CD206 (amount of protein, IL-4 alone = 1.00): 1.17
  IL-1β (amount of protein, LPS alone = 1.00): 0.72
  iNOS (amount of protein, LPS alone = 1.00): 0.61
[3]; MeCbl 10 μM
  Arg1 (amount of protein, IL-4 alone = 1.00): 2.08
  CD206 (amount of protein, IL-4 alone = 1.00): 1.17
  IL-1β (amount of protein, LPS alone = 1.00): 0.58
  iNOS (amount of protein, LPS alone = 1.00): 0.46
[3]; MeCbl 100 μM
  Arg1 (amount of protein, IL-4 alone = 1.00): 1.37
  CD206 (amount of protein, IL-4 alone = 1.00): 1.24
  IL-1β (amount of protein, LPS alone = 1.00): 0.53
  iNOS (amount of protein, LPS alone = 1.00): 0.36
[3]; MeCbl 1 mM
  Arg1 (amount of protein, IL-4 alone = 1.00): 0.59
  CD206 (amount of protein, IL-4 alone = 1.00): 1.11
  IL-1β (amount of protein, LPS alone = 1.00): 0.32
  iNOS (amount of protein, LPS alone = 1.00): 0.05
[3]; LPS + at least 10 nM methylcobalamin
  amount of iNOS protein as compared with LPS alone: significantly decreased
[3]; LPS + at least 1 μM methylcobalamin
  amount of IL-1β protein as compared with LPS alone: significantly decreased
